Where a SMILES comes first, the peptide text is derived from it. [ ]: non-standard residue; d: D form. The star is where a group is joined. Myristoyl = CCCCCCCCCCCCCC(=O)*; Orn = NCCC[C@H](N)C(=O)O
Tests used:
[1] = test system: CD44^hiCD24^lo CSCs in MDA-MB-231 cells; experiment: FACS analysis of CD44^hiCD24^lo cancer stem cells in MDA-MB-231 cells treated with P1 analogues; format: cell-based, human; settings: 50 μM peptide, 48 hours; for CD44^hiCD24^lo CSCs (%) / COI, Live Single CD44^hiCD24^lo CSCs (Cell Count): n = 1; for Average Inhibition of CSCs (%) / CD44^hiCD24^lo CSCs (%) Repeat 1 / CD44^hiCD24^lo CSCs (%) Repeat 2 / CD44^hiCD24^lo CSCs (%) Repeat 3: n = 3
Description: Analogues of P1 (Table 6) were designed and synthesized in accordance with the procedure of Example 5. The ability of these analogues to inhibit cancer stem cells was determined using FACS analysis on MDA-MB-231 cells, which constitutively contain approximately 90% CD44^hiCD24^lo cancer stem cells, treated with the peptides.
(§1) Non-adherent cells were removed during the washing steps.

MDA-MB-231 cells = format: cell-based, human; settings: 50 μM peptide, 48 hours, n = 1
From the text: as §1
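Throughout, for COI, Live Single Cells (Cell Count): live means Hoechst-negative events among single cells.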

SMILES	Inhibition of CSCs (%) Repeat 1 [1]	Inhibition of CSCs (%) Repeat 2 [1]	Inhibition of CSCs (%) Repeat 3 [1]	CD44^hiCD24^lo CSCs (%) [1]	COI, Live Single CD44^hiCD24^lo CSCs (Cell Count) [1]	Average Inhibition of CSCs (%) [1]	CD44^hiCD24^lo CSCs (%) Repeat 1 [1]	CD44^hiCD24^lo CSCs (%) Repeat 2 [1]	CD44^hiCD24^lo CSCs (%) Repeat 3 [1]	COI (Cell Count) (MDA-MB-231 cells)	COI, Live Single Cells (Cell Count) (MDA-MB-231 cells)	COI, Single (Cell Count) (MDA-MB-231 cells)	Total Cell Count (MDA-MB-231 cells)
CCCCCCCCCCCCCC(=O)N[C@@H](CC(C)C)C(=O)N[C@H](C(=O)N[C@@H](Cc1ccccc1)C(=O)N[C@H](C(=O)N[C@@H](Cc1ccccc1)C(=O)N[C@@H](CCCNC(=N)N)C(=O)N[C@H](C(=O)N[C@@H](CCCNC(=N)N)C(=O)N[C@@H](CCCCN)C(=O)NCC(=O)N[C@@H](CCCNC(=N)N)C(=O)N[C@@H](CCSC)C(=O)N[C@@H](CCSC)C(=O)N[C@@H](CC(=O)O)C(=O)N[C@H](C(=O)N[C@@H](CCCCN)C(=O)N[C@@H](CCCCN)C(N)=O)C(C)C)C(C)C)[C@@H](C)CC)[C@@H](C)O [Peptide 2853820, Myristoyl-LTFIFRVRKGRMMDVKK-NH2] (Myristoyl-LTFIFRVRKGRMMDVKK-NH2)	89.75%	90.39%	91.76%	6.64%	14	90.63%	9.19%	8.62%	7.40%	541	211	346	3098
CCCCCCCCCCCCCC(=O)N[C@@H](CC(C)C)C(=O)N[C@H](C(=O)N[C@@H](Cc1ccccc1)C(=O)N[C@H](C(=O)N[C@@H](Cc1ccccc1)C(=O)N[C@@H](CCCNC(=N)N)C(=O)N[C@@H](CCC(=O)O)C(=O)N[C@@H](CCCNC(=N)N)C(=O)N[C@@H](CCCCN)C(=O)NCC(=O)N[C@@H](CCCNC(=N)N)C(=O)N[C@@H](CCSC)C(=O)N[C@@H](CCSC)C(=O)N[C@@H](CC(=O)O)C(=O)N[C@H](C(=O)N[C@@H](CCCCN)C(=O)N[C@@H](CCCCN)C(N)=O)C(C)C)[C@@H](C)CC)[C@@H](C)O [Peptide 2853821, Myristoyl-LTFIFRERKGRMMDVKK-NH2] (Myristoyl-LTFIFRERKGRMMDVKK-NH2)	85.54%	87.64%	89.89%	13.00%	289	87.69%	12.96%	11.09%	9.08%	2756	2223	2240	7421
CCCCCCCCCCCCCC(=O)N[C@@H](CC(C)C)C(=O)N[C@H](C(=O)N[C@@H](Cc1ccccc1)C(=O)N[C@H](C(=O)N[C@@H](Cc1ccccc1)C(=O)N[C@@H](CCCNC(=N)N)C(=O)N[C@@H](CCCCN)C(=O)N[C@@H](CCCNC(=N)N)C(=O)N[C@@H](CCCCN)C(=O)NCC(=O)N[C@@H](CCCNC(=N)N)C(=O)N[C@@H](CCSC)C(=O)N[C@@H](CCSC)C(=O)N[C@@H](CC(=O)O)C(=O)N[C@H](C(=O)N[C@@H](CCCCN)C(=O)N[C@@H](CCCCN)C(N)=O)C(C)C)[C@@H](C)CC)[C@@H](C)O [Peptide 2853822, Myristoyl-LTFIFRKRKGRMMDVKK-NH2] (Myristoyl-LTFIFRKRKGRMMDVKK-NH2)	81.93%	81.80%	81.03%	4.78%	31	81.59%	16.19%	16.33%	17.02%	768	648	657	3204
CCCCCCCCCCCCCC(=O)N[C@@H](CC(C)C)C(=O)N[C@H](C(=O)N[C@@H](Cc1ccccc1)C(=O)N[C@H](C(=O)N[C@@H](Cc1ccccc1)C(=O)N[C@@H](CCCNC(=N)N)C(=O)N[C@@H](CC(C)C)C(=O)N[C@@H](CCC(=O)O)C(=O)N[C@@H](CCCCN)C(=O)NCC(=O)N[C@@H](CCCNC(=N)N)C(=O)N[C@@H](CCSC)C(=O)N[C@@H](CCSC)C(=O)N[C@@H](CC(=O)O)C(=O)N[C@H](C(=O)N[C@@H](CCCCN)C(=O)N[C@@H](CCCCN)C(N)=O)C(C)C)[C@@H](C)CC)[C@@H](C)O [Peptide 2853823, Myristoyl-LTFIFRLEKGRMMDVKK-NH2] (Myristoyl-LTFIFRLEKGRMMDVKK-NH2)	80.72%	81.08%	82.74%	3.62%	22	81.52%	17.28%	16.97%	15.49%	672	608	626	1209
CCCCCCCCCCCCCC(=O)N[C@@H](CC(C)C)C(=O)N[C@H](C(=O)N[C@@H](Cc1ccccc1)C(=O)N[C@H](C(=O)N[C@@H](Cc1ccccc1)C(=O)N[C@@H](CCCNC(=N)N)C(=O)N[C@@H](CC(C)C)C(=O)N[C@@H](CCCCN)C(=O)N[C@@H](CCCCN)C(=O)NCC(=O)N[C@@H](CCCNC(=N)N)C(=O)N[C@@H](CCSC)C(=O)N[C@@H](CCSC)C(=O)N[C@@H](CC(=O)O)C(=O)N[C@H](C(=O)N[C@@H](CCCCN)C(=O)N[C@@H](CCCCN)C(N)=O)C(C)C)[C@@H](C)CC)[C@@H](C)O [Peptide 2853824, Myristoyl-LTFIFRLKKGRMMDVKK-NH2] (Myristoyl-LTFIFRLKKGRMMDVKK-NH2)	77.86%	79.50%	76.91%	16.54%	619	78.09%	19.85%	18.39%	20.72%	4232	3743	3768	5455
CCCCCCCCCCCCCC(=O)N[C@@H](CC(C)C)C(=O)N[C@H](C(=O)N[C@@H](Cc1ccccc1)C(=O)N[C@H](C(=O)N[C@@H](Cc1ccccc1)C(=O)N[C@@H](CCCNC(=N)N)C(=O)N[C@@H](CC(C)C)C(=O)N[C@@H](CCCNC(=N)N)C(=O)N[C@@H](CCCNC(C)=O)C(=O)NCC(=O)N[C@@H](CCCNC(=N)N)C(=O)N[C@@H](CCSC)C(=O)N[C@@H](CCSC)C(=O)N[C@@H](CC(=O)O)C(=O)N[C@H](C(=O)N[C@@H](CCCCN)C(=O)N[C@@H](CCCCN)C(N)=O)C(C)C)[C@@H](C)CC)[C@@H](C)O [Peptide 2853826, Myristoyl-LTFIFRLROrn(Ac)GRMMDVKK-NH2] (Myristoyl-LTFIFRLR[Orn](Ac)GRMMDVKK-NH2)	86.74%	80.33%	87.62%	3.13%	5	84.90%	11.88%	17.65%	11.11%	554	160	433	3961
CCCCCCCCCCCCCC(=O)N[C@@H](CC(C)C)C(=O)N[C@H](C(=O)N[C@@H](Cc1ccccc1)C(=O)N[C@H](C(=O)N[C@@H](Cc1ccccc1)C(=O)N[C@@H](CCCNC(=N)N)C(=O)N[C@@H](CC(C)C)C(=O)N[C@@H](CCCNC(=N)N)C(=O)N[C@@H](CCCCN)C(=O)N[C@@H](CC(=O)O)C(=O)N[C@@H](CCCNC(=N)N)C(=O)N[C@@H](CCSC)C(=O)N[C@@H](CCSC)C(=O)N[C@@H](CC(=O)O)C(=O)N[C@H](C(=O)N[C@@H](CCCCN)C(=O)N[C@@H](CCCCN)C(N)=O)C(C)C)[C@@H](C)CC)[C@@H](C)O [Peptide 2853827, Myristoyl-LTFIFRLRKDRMMDVKK-NH2] (Myristoyl-LTFIFRLRKDRMMDVKK-NH2)	95.44%	91.08%	89.47%	1.64%	1	92.00%	4.09%	8.00%	9.45%	170	61	110	4681
